Reference: patent publication US20120015898A1, “COMPOUNDS AND METHODS FOR TREATMENT OF SICKLE CELL DISEASE OR COMPLICATIONS ASSOCIATED THEREWITH” (GlycoMimetics, Inc., priority 2007, published 2012)

Tests used:
sickle cell mice [1] = assay: Delayed treatment of VOC in sickle cell mice (treatment protocol); assay type: in vivo; details: control PBS
Experimental: FIG. 9 is a schematic of a sickle cell mouse model for use with both prevention and treatment protocols. The black arrows underneath Comp. #2 are for the prevention protocol. The gray arrow underneath Comp. #2 is for the treatment protocol. Recording is started at the 90 minute mark for the prevention protocol. Recording is started at the 120 minute mark for the treatment protocol.
(§1) An animal model of sickle cell disease exists in fully chimeric mice constructed by bone marrow transplantation and expressing >97% human globin containing the β^S mutation. A vaso-occlusive crisis is induced by stimulation with TNFα and is monitored by observing and recording blood flow by intravital microscopy of the venules in the cremaster muscle.
(§2) Each mouse is prepared by cannulating the right carotid artery and by undergoing a tracheotomy to facilitate ventilation under anesthesia. Twenty (20) minutes prior to stimulation with TNFα, the cremaster muscle is gently exteriorized and the venules are set on a microscope stage for observation and recording of blood flow. Just prior to administration of TNFα and again prior to the recording of the venules (90 min later), Compound # 2 is administered through the cannulated carotid artery and data is obtained by monitoring blood flow and recording time of death.

sickle cell mice [2] = assay: TNFα-induced vaso-occlusive crisis in sickle cell mice, intravital microscopy of cremaster venules (prevention protocol); assay type: in vivo
Source text: FIG. 6 is a schematic of the protocol for inducing a vaso-occlusive crisis (VOC) in sickle cell-affected mice and recording blood flow.
as §1, §2

CC1OC(OC2C(NC(=O)c3cc(O)nc(O)n3)CC(C(=O)NCCNC(=O)COCCOCC(=O)Nc3cccc(CNc4cc(S(=O)(=O)O)cc5cc(S(=O)(=O)O)cc(S(=O)(=O)O)c45)c3)CC2OC2OC(CO)C(O)C(O[C@@H](CC3CCCCC3)C(=O)O)C2OC(=O)c2ccccc2)C(O)C(O)C1O (some centres unmarked) [Compound #2]
adherent white blood cells (WBCs) (sickle cell mice [1]; WBCs adherent to vascular endothelium, FIG. 11): significant reduction in the number of WBCs adherent to the vascular endothelium
blood flow rate (sickle cell mice [1]; FIG. 10): normalizes the rate of blood flow
interactions of sickle red blood cells (RBCS) with leukocytes (sickle cell mice [1]; FIG. 12): dramatically reduces interactions of sickle RBCs with leukocytes
blood flow in the sickle cell mouse (sickle cell mice [2]; after stimulation with TNFα, compound given through cannulated carotid artery just prior to TNFα and again 90 min later, FIG. 7): restoring blood flow to a velocity observed in normal mice
adhesion of sickle red blood cells (RBC) to leukocytes (sickle cell mice [2]; sickle cell mice, TNFα-induced vaso-occlusive crisis, FIG. 8): significant inhibition of adhesion
